For this assay, the system named is MCF7 cells. The assay is described as follows: Whole cell cytotoxicity assay: Sulforhodamine B. It counts as cell-based, Human. The note with it: compound concentration 100 μM, MCF7 cell growth, 48 hours with drug, SRB staining; for inhibition at 100 µM: Homo sapiens. Here is the method: The following procedure can be found on the Developmental Therapeutics Program NCI/NIH web site at http://dtp.nci.nih.gov/brancehes/btb/ivclsp.html.
1. Human tumor cell lines of HT29, A549 and MCF7 are grown in DMEM containing 10% fetal bovine serum and 2 mM L-glutamine. Cells are plated in a 96 well plate at a density of 5000 cells per well in 100 uL of growth medium and incubated at 37° C., 5% CO2, for 24 hours prior to the addition of experimental compounds.
2. Experimental drugs are solubilized in DMSO for a final concentration of 20 mM immediately prior to use. Drugs are further diluted in growth media for a total of nine drug concentrations and a growth control. At the 24 hour time point, one plate of cells is fixed in situ with TCA as a measurement of the cell population at time zero, or the time of drug addition.
3. The plates are further incubated with drug for an additional 48 hours.
4. The cells are fixed in situ by gently aspirating off the culture media and then adding 50 uL of ice cold 10% TCA per well and incubated at 4° C. for 60 minutes. The plates are washed with tap water five times and allowed to air dry for 5 minute.
5. 50 ul of a 0.4% (w/v) Sulforhodamine B solution in 1% (v/v) acetic acid is added per well and incubated for 30 minutes at room temperature.
6. Following staining, plates are washed five times with 1% acetic acid to remove any unbound dye and then allowed to air dry for 5 minutes.
7. Stain is solubilized with 100 uL of 10 mM Tris pH 10.5 per well and placed on an orbital rotator for 5 minutes.
8. Absorbance is read at 570 nm.
For orientation: Sulforhodamine B stains cellular protein and so reports cell mass.

On to “2-(4-{4-[(3-(pyrrolidin-1-ylmethyl)-2-furyl]phenylsulfonyl}piperazin-1-yl)-1,3-thiazole-5-carboxylic acid hydroxyamide [Example 283]”, for which the “% inhibition MCF7 cells @ 100 μM” value is on record as 98%.
Same read-out and setting: for “2-[4-(naphtha-2-yl-4-sulfonyl)-piperazin-1-yl]-thiazole-5-carboxylic acid hydroxyamide [Example 201]” the value was 95%; for `Cc1ccc(S(=O)(=O)N2CCN(c3ncc(C(=O)NO)s3)CC2)cc1` [Example 204, 2-[4-(4-toluene-4-sulfonyl)-piperazin-1-yl]-thiazole-5-carboxylic acid hydroxyamide], 95.4%.
On to `O=C(NO)c1cnc(N2CCN(S(=O)(=O)c3ccc(-c4csc(CN5CCCC5)c4)cc3)CC2)s1` [Example 307, 2-{4-[4-(2-(pyrrolidin-1-ylmethyl)thien-4-yl)phenylsulfonyl]piperazin-1-yl}-1,3-thiazole-5-carboxylic acid hydroxyamide], for which at 100 µM the inhibition was 99%.
Regarding `CN(C)Cc1ccoc1-c1ccc(S(=O)(=O)N2CCN(c3ncc(C(=O)NO)s3)CC2)cc1` [Example 308, 2-(4-{4-[3-((dimethylamino)-methyl)-2-furyl]phenylsulfonyl}piperazin-1-yl)-1,3-thiazole-5-carboxylic acid hydroxyamide], 100 µM produced 99% inhibition.
For the compound `O=C(NO)c1cnc(N2CCN(S(=O)(=O)c3ccc(-c4cc(CN5CCCC5)co4)cc3)CC2)s1` [Example 309], the inhibition (as a rule, the share of the control response that was lost under treatment) at 100 µM amounted to 83%.
In turn, `CN(C)Cc1ccsc1-c1ccc(S(=O)(=O)N2CCN(c3ncc(C(=O)NO)s3)CC2)cc1` [Example 310] gave an inhibition at 100 µM of 98%.
Consider `CN(CCO)Cc1cccc(-c2ccc(S(=O)(=O)N3CCN(c4ncc(C(=O)NO)s4)CC3)cc2)c1` [Example 311, 2-{4-[3′-{[(2-hydroxyethyl)(methyl)amino]methyl}-1,1′-biphenylsulfonyl]piperazin-1-yl}-1,3-thiazole-5-carboxylic acid hydroxyamide], for which the inhibition at 100 µM came out at 98%.
Compound `O=C(NO)c1cnc(N2CCN(S(=O)(=O)c3ccc(-c4cccc(CN(CCO)CCO)c4)cc3)CC2)s1` [Example 312, 2-{4-[3′-{[bis(2-hydroxyethyl)amino]methyl}-1,1′-biphenylsulfonyl]piperazin-1-yl}-1,3-thiazole-5-carboxylic acid hydroxyamide] gave an inhibition at 100 µM of 85%.
With `O=C(NO)c1cnc(N2CCN(S(=O)(=O)c3ccc(-c4cccc(CN5CC=CCC5)c4)cc3)CC2)s1` [Example 313, 2-{4-[3′-(3,6-dihydropyridin-1(2H)-ylmethyl)-1,1-biphenylsulfonyl]piperazin-1-yl}-1,3-thiazole-5-carboxylic acid hydroxyamide], testing at 100 µM gave an inhibition of 92%.
On the same count and under the same terms, in the case of `CCCCN(C)Cc1cccc(-c2ccc(S(=O)(=O)N3CCN(c4ncc(C(=O)NO)s4)CC3)cc2)c1` [Example 314, 2-{4-[3′-{[(butyl)(methyl)amino]methyl}-1,1′-biphenylsulfonyl]piperazin-1-yl}-1,3-thiazole-5-carboxylic acid hydroxyamide] it was 97%; in that of `O=C(NO)c1cnc(N2CCN(S(=O)(=O)c3ccc(-c4cccc(CN5CCNCC5)c4)cc3)CC2)s1` [Example 315, 2-{4-[3′-((piperazin-1-yl)methyl)-1,1′-biphenylsulfonyl]piperazin-1-yl}-1,3-thiazole-5-carboxylic acid hydroxyamide], 95%.
For `COCCN(C)Cc1cccc(-c2ccc(S(=O)(=O)N3CCN(c4ncc(C(=O)NO)s4)CC3)cc2)c1` [Example 316, 2-{4-[3′-{[(2-methoxyethyl)(methyl)amino]methyl}-1,1′-biphenylsulfonyl]piperazin-1-yl}-1,3-thiazole-5-carboxylic acid hydroxyamide], the inhibition at 100 µM was 97%.
The same measure, in the same setting: for `C=CCN(CC=C)Cc1cccc(-c2ccc(S(=O)(=O)N3CCN(c4ncc(C(=O)NO)s4)CC3)cc2)c1` [Example 317] the value was 66%.

The record behind these values is patent US20050250784A1 (Miikana Therapeutics Corporation, priority 2004, published 2005).
